This is an account of results in patent publication US9932309B2, “2-oxo-3,4-dihydropyridine-5-carboxylates and their use” (UNIVERSITE DE LILLE 2 DROIT ET SANTE, priority 2014, dated 2018).

The term EC50 denotes the concentration that produces a half-maximal response.

Counter-ions that a name gives are not always drawn.

For one assay, the target named is T1, mTGR5 (Mus musculus, UniProt Q80SS6).
T1 construct: expressed in transfected cells; host or cells: HEK293 cells, transiently co-transfected with the pCRE TA-Luciferase reporter
T1 sequence (Q80SS6 1-329): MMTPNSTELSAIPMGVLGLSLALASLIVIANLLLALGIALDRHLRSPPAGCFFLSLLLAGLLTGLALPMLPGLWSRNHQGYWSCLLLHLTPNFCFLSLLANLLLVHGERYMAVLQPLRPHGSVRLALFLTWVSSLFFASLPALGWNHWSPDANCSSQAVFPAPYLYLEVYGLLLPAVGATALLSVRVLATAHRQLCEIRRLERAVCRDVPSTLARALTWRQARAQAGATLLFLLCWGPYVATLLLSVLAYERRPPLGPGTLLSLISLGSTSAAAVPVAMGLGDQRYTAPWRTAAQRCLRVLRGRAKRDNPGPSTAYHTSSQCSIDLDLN
Briefly: TGR5/CRE Luciferase Assay (mTGR5). Conditions: for EC50: HEK 293 cells co-transfected with pCMV AC6-TGR5m and pCRE TA-Luciferase, overnight incubation; for mTGR5 % trans: percentage of the 10 μM LCA value, HEK 293 cells transfected with mTGR5. In kind it is cell-based. In outline:
(§1)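 cAMP-dependent luciferase luminescence was measured after overnight compound exposure (duplicate concentration series) and fitted to a four-parameter logistic equation. Cells: HEK293 transiently co-expressing hTGR5 or mTGR5 with a CRE reporter; lithocholic acid at 10 μM was the reference agonist.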

The target in the next assay is T2, hTGR5 (Homo sapiens, UniProt Q8TDU6).
T2 construct: expressed in transfected cells; host or cells: HEK293 cells, transiently co-transfected with the pCRE TA-Luciferase reporter
T2 sequence (Q8TDU6 1-330): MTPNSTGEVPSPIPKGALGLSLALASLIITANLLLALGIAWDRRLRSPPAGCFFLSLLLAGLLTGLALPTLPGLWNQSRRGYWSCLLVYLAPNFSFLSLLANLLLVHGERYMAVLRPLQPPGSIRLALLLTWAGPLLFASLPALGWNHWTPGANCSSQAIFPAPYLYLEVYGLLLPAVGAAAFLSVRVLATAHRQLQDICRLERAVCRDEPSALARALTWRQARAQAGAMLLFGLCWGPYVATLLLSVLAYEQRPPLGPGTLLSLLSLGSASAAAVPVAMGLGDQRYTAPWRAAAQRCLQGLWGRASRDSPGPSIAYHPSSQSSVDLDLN
The assay is described as follows: TGR5/CRE Luciferase Assay (hTGR5). The note with it: for EC50: HEK 293 cells co-transfected with pCMV tag4b-TGR5h and pCRE TA-Luciferase, overnight incubation; for hTGR5 % trans: percentage of the 10 μM LCA value, HEK 293 cells transfected with hTGR5. It is filed as cell-based. In outline: as §1

Take `C=CCN1C(=O)CC(c2ccc(Cl)cc2)C(C(=O)OCc2ccccc2)=C1C` (centres unmarked) [Compound 38, Benzyl 1-allyl-4-(4-chlorophenyl)-6-methyl-2-oxo-3,4-dihydropyridine-5-carboxylate]: on mTGR5, the response was half-maximal at 1.5 µM (EC50) and the mTGR5 % trans turned out to be 54%. At hTGR5, this molecule returned a half-maximal effective concentration (EC50) of 1.1 µM and a hTGR5 % trans of 75%.
As for `C=C(C)CN1C(=O)CC(c2ccc(Cl)cc2)C(C(=O)OCc2ccccc2)=C1C` (centres unmarked) [Compound 39, Benzyl 4-(4-chlorophenyl)-6-methyl-1-(2-methylallyl)-2-oxo-3,4-dihydropyridine-5-carboxylate], at mTGR5, it took 1.4 µM to reach a half-maximal effect (EC50) and the mTGR5 % trans turned out to be 73%. On hTGR5, this molecule gave an EC50 of 1.3 µM and a hTGR5 % trans of 82%.
Taken in the same sequence, the figures for `C#CCN1C(=O)CC(c2ccc(Cl)cc2)C(C(=O)OCc2ccccc2)=C1C` (centres unmarked) [Compound 40, Benzyl 4-(4-chlorophenyl)-6-methyl-2-oxo-1-prop-2-ynyl-3,4-dihydropyridine-5-carboxylate] were 0.9 µM, 76%, 0.9 µM and 81%.
On mTGR5, `CC1=C(C(=O)OCc2ccccc2)C(c2ccc(Cl)cc2)CC(=O)N1Cc1ccccc1` (centres unmarked) [Compound 41, Benzyl 1-benzyl-4-(4-chlorophenyl)-6-methyl-2-oxo-3,4-dihydropyridine-5-carboxylate] returned an EC50 of 1.2 µM and a mTGR5 % trans of 55%. Also, on hTGR5, the EC50 was determined as 1.3 µM and the hTGR5 % trans worked out at 55%.
Turning to `CC1=C(C(=O)OCc2ccccc2)C(c2ccc(Cl)cc2)CC(=O)N1CC1CCC1` (centres unmarked) [Compound 44, Benzyl 4-(4-chlorophenyl)-1-(cyclobutylmethyl)-6-methyl-2-oxo-3,4-dihydropyridine-5-carboxylate], at mTGR5, the EC50 was 0.4 µM and the mTGR5 % trans was 77%. On hTGR5, a half-maximal effect (EC50) was put at 0.3 µM and the hTGR5 % trans is reported as 59%.
With `CC1=C(C(=O)OCc2ccccc2)C(c2ccc(Cl)cc2)CC(=O)N1CC1CN(C)C1` (centres unmarked) [Compound 47, Benzyl 4-(4-chlorophenyl)-6-methyl-1-[(1-methylazetidin-3-yl)methyl]-2-oxo-3,4-dihydropyridine-5-carboxylate], the mTGR5 % trans on mTGR5 worked out at 0%. Besides, on hTGR5, the EC50 worked out at 6.6 µM and the hTGR5 % trans amounted to 22%.
`CC1=C(C(=O)OCc2ccccc2)C(c2ccc(Cl)cc2)CC(=O)N1CC1C[N+](C)(C)C1.[I-]` (centres unmarked) [Compound 48, Benzyl 4-(4-chlorophenyl)-1-[(1,1-dimethylazetidin-1-ium-3-yl)methyl]-6-methyl-2-oxo-3,4-dihydropyridine-5-carboxylate iodide] registered a mTGR5 % trans at mTGR5 of 0%. Also, on hTGR5, the EC50 is 12 µM and the hTGR5 % trans is on record as 13%.
The corresponding values for `CC1=C(C(=O)OCc2ccccc2)C(c2ccc(Cl)cc2)CC(=O)N1CCNC(=O)OC(C)(C)C` (centres unmarked) [Compound 52, Benzyl 1-[2-(tert-butoxycarbonylamino)ethyl]-4-(4-chlorophenyl)-6-methyl-2-oxo-3,4-dihydropyridine-5-carboxylate] are 0%, 2.5 µM and 18%.
Turning to `CC1=C(C(=O)OCc2ccccc2)C(c2ccc(Cl)cc2)CC(=O)N1CCN` (centres unmarked) [Compound 53, Hydrochloride salt of benzyl 1-(2-aminoethyl)-4-(4-chlorophenyl)-6-methyl-2-oxo-3,4-dihydropyridine-5-carboxylate], the mTGR5 % trans on mTGR5 was found to be 0%. Moreover, at hTGR5, the EC50 was found to be 4.3 µM and the hTGR5 % trans turned out to be 16%.
Taken in the same sequence, the figures for `CC1=C(C(=O)OCc2ccccc2)C(c2ccc(Cl)cc2)CC(=O)N1CCCN(C)C` (centres unmarked) [Compound 54, Benzyl 4-(4-chlorophenyl)-1-[3-(dimethylamino)propyl]-6-methyl-2-oxo-3,4-dihydropyridine-5-carboxylate] were 0%, 4.2 µM and 10%.
For the molecule `CC1=C(C(=O)OCc2ccccc2)C(c2ccc(Cl)cc2)CC(=O)N1CCN1CCCC1` (centres unmarked) [Compound 55, Benzyl 4-(4-chlorophenyl)-6-methyl-2-oxo-1-(2-pyrrolidin-1-ylethyl)-3,4-dihydropyridine-5-carboxylate], the mTGR5 % trans on mTGR5 stood at 5%. Also, on hTGR5, the EC50 was determined as 4.5 µM and the hTGR5 % trans turned out to be 47%.
The corresponding values for `CC1=C(C(=O)OCc2ccccc2)C(c2ccc(Cl)cc2)CC(=O)N1CCN1CCCCC1` (centres unmarked) [Compound 56, Benzyl 4-(4-chlorophenyl)-6-methyl-2-oxo-1-[2-(1-piperidyl)ethyl]-3,4-dihydropyridine-5-carboxylate] are 3%, 3.6 µM and 50%.
On to `CC1=C(C(=O)OCc2ccccc2)C(c2ccc(Cl)cc2)CC(=O)N1CC(=O)OC(C)(C)C` (centres unmarked) [Compound 58, Benzyl 1-(2-tert-butoxy-2-oxo-ethyl)-4-(4-chlorophenyl)-6-methyl-2-oxo-3,4-dihydropyridine-5-carboxylate], for which, at mTGR5, the EC50 worked out at 0.42 µM and the mTGR5 % trans amounted to 70%. Besides, on hTGR5, the midpoint of the response, the EC50, lay at 1.34 µM and the hTGR5 % trans came out at 50%.
The corresponding values for `CC1=C(C(=O)OCc2ccccc2)C(c2ccc(Cl)cc2)CC(=O)N1Cc1nc(C)no1` (centres unmarked) [Compound 59, Benzyl 4-(4-chlorophenyl)-6-methyl-1-[(3-methyl-1,2,4-oxadiazol-5-yl)methyl]-2-oxo-3,4-dihydropyridine-5-carboxylate] are 12.4 µM, 18%, 1.1 µM and 21%.
With `CC1=C(C(=O)OCc2ccccc2)C(c2ccc(Cl)cc2)CC(=O)N1CC(N)=O` (centres unmarked) [Compound 60, Benzyl 1-(2-amino-2-oxo-ethyl)-4-(4-chlorophenyl)-6-methyl-2-oxo-3,4-dihydropyridine-5-carboxylate], at mTGR5, a half-maximal effect (EC50) was put at 14.4 µM and the mTGR5 % trans was found to be 32%. Besides, at hTGR5, the EC50 amounted to 13.5 µM and the hTGR5 % trans came out at 42%.
At mTGR5, `CC1=C(C(=O)OCc2ccccc2)C(c2ccc(Cl)cc2)CC(=O)N1CCS(C)(=O)=O` (centres unmarked) [Compound 62, Benzyl 4-(4-chlorophenyl)-6-methyl-1-(2-methylsulfonylethyl)-2-oxo-3,4-dihydropyridine-5-carboxylate] showed an EC50 of 5.9 µM and a mTGR5 % trans of 42%. Besides, on hTGR5, a half-maximal response (EC50) required 2.3 µM and the hTGR5 % trans was 69%.
The corresponding values for `CC1=C(C(=O)OCc2ccccc2)C(c2ccc(Cl)cc2)CC(=O)N1CC#N` (centres unmarked) [Compound 63, Benzyl 4-(4-chlorophenyl)-1-(cyanomethyl)-6-methyl-2-oxo-3,4-dihydropyridine-5-carboxylate] are 2 µM, 57%, 2.2 µM and 50%.
Consider `COc1ccccc1COC(=O)C1=C(C)N(Cc2ccco2)C(=O)CC1c1ccc(Cl)cc1` (centres unmarked) [Compound 66], for which, at mTGR5, the response was half-maximal at 0.1 µM (EC50) and the mTGR5 % trans came out at 78%. On hTGR5, this molecule showed an EC50 of 0.2 µM and a hTGR5 % trans of 62%.
At mTGR5, `CCOC(=O)CN1C(=O)CC(c2ccc(Cl)cc2)C(C(=O)OCc2ccccc2OC)=C1C` (centres unmarked) [Compound 69, (2-methoxyphenyl)methyl 4-(4-chlorophenyl)-1-(2-ethoxy-2-oxo-ethyl)-6-methyl-2-oxo-3,4-dihydropyridine-5-carboxylate] displayed an EC50 of 0.4 µM and a mTGR5 % trans of 104%. On hTGR5, this molecule had an EC50 of 0.3 µM and a hTGR5 % trans of 105%.
Taken in the same sequence, the figures for `COc1ccccc1COC(=O)C1=C(C)N(CC2CC2)C(=O)CC1c1ccc(Cl)cc1` (centres unmarked) [Compound 70, o-methoxybenzyl 4-(4-chlorophenyl)-1-(cyclopropylmethyl)-6-methyl-2-oxo-3,4-dihydropyridine-5-carboxylate] were 0.08 µM, 102%, 0.07 µM and 65%.
The corresponding values for `COCCCN1C(=O)CC(c2ccc(Cl)cc2)C(C(=O)OCc2ccccc2OC)=C1C` (centres unmarked) [Compound 71, (2-methoxyphenyl)methyl 4-(4-chlorophenyl)-1-(3-methoxypropyl)-6-methyl-2-oxo-3,4-dihydropyridine-5-carboxylate] are 0.8 µM, 85%, 0.2 µM and 94%.
